Test results taken from patent US20250332173A1, “COMPOUNDS AND METHODS FOR MODULATING NUCLEIC ACID SPLICING” (REMIX THERAPEUTICS INC., priority 2021, published 2025).
Like-named read-outs stand apart in the source and are kept apart here.

Key:
Assay type in all cases: cell-based, human
SMN2 mRNA = test: RT-qPCR splicing assay, SMN2 canonical junction (CJ) mRNA; settings: Homo sapiens; Table 5 panel; canonical junction qPCR; compound concentration having 50% response in CJ decrease; read-out: SMN2 IC50 (decrease in CJ mRNA levels)
How it was run: (§1)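 K562/A673 cells, 11-pt 3-fold compound titration from 10 uM final, DMSO ≤0.25%, 24 h 37 °C 5% CO2; lyse (DNase I or Igepal/Tris buffer pH 7.4); RT-qPCR for CJ isoform vs housekeeping gene (GAPDH/GUSB/PPIA).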

Target C = test: RT-qPCR splicing assay panel, Target C canonical junction (CJ) mRNA; settings: Homo sapiens; Table 5 panel; canonical junction qPCR; compound concentration having 50% response in CJ decrease; read-out: Target C IC50 (decrease in CJ mRNA levels)
How it was run: as §1

MYB = test: HiBiT protein abundance assay, MYB HiBiT K562 cell line; settings: 24 hours, top dose 10 μM
How it was run: (§2)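 K562 knock-in lines with endogenous HiBiT-tagged target, 10,000 cells/well in IMDM + FBS, treated 24 h at 37° C with 10-point 3-fold dilutions (top 10 μM final; DMSO ≤0.25%). Lytic Nano-Glo HiBiT luminescence normalized to untagged K562 baseline and DMSO controls; IC50 = concentration giving 50% abundance via four-parameter fit.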

HTT = test: HiBiT protein abundance assay, HTT HiBiT K562 cell line; settings: 24 hours, top dose 10 μM
How it was run: as §2

[1] = HiBiT K562 cell line, read-out: Effect on protein abundance, MYB (IC50 category)
[2] = HiBiT K562 cell line, read-out: Effect on protein abundance, HTT (IC50 category)
[3] = HiBiT lytic detection, modified K562 cells, read-out: Effect on protein abundance, MYB (IC50)
[4] = HiBiT lytic detection, modified K562 cells, read-out: Effect on protein abundance, HTT (IC50)

SMILES | IC50 (SMN2 mRNA) [µM] | IC50 (Target C) [µM] | IC50 (MYB; [1]) [µM] | IC50 (HTT; [2]) [µM] | IC50 (MYB; [3]) [µM] | IC50 (HTT; [4]) [µM]
Cc1cn2nc(-c3cc4ccn([C@H]5CCNC5)c(=O)c4cc3O)cc(C)c2n1 [Compound 641, 6-(2,8-dimethylimidazo[1,2-b]pyridazin-6-yl)-7-hydroxy-2-[(3S)-pyrrolidin-3-yl]isoquinolin-1-one] | < 0.1 | 1 to 10 | < 0.1 | 0.1 to 1 | – | –
CNc1cc(-c2cc(C)c3nc(C)cn3n2)cc2ccn([C@H]3CCNC3)c(=O)c12 [Compound 647, 6-(2,8-dimethylimidazo[1,2-b]pyridazin-6-yl)-8-(methylamino)-2-[(3S)-pyrrolidin-3-yl]isoquinolin-1-one] | 0.1 to 1 | > 10 | 1 to 10 | 1 to 10 | – | –
CC(=O)Nc1cc(-c2cc(C)c3nc(C)cn3n2)cc2ccn([C@H]3CCNC3)c(=O)c12 [Compound 649, N-[6-(2,8-dimethylimidazo[1,2-b]pyridazin-6-yl)-1-oxo-2-[(3S)-pyrrolidin-3-yl]-8-isoquinolyl]acetamide] | 0.1 to 1 | > 10 | 1 to 10 | 1 to 10 | – | –
CC(=O)Nc1cc(-c2cc(C)c3nc(C)cn3n2)cc2ccn([C@@H]3CCNC3)c(=O)c12 [Compound 650, N-[6-(2,8-dimethylimidazo[1,2-b]pyridazin-6-yl)-1-oxo-2-[(3R)-pyrrolidin-3-yl]-8-isoquinolyl]acetamide] | 1 to 10 | > 10 | > 10 | > 10 | – | –
Cn1cc2cc(-c3ncc4c(=O)n(C5CCNCC5)ccc4n3)c(O)c(F)c2n1 [Compound 1123] | < 0.1 | 0.1 to 1 | < 0.1 | < 0.1 | – | –
CNC1CCN(c2ccc3cc(-c4cc(C)c5nc(C)cn5n4)ccn3c2=O)C1 (stereo not shown) [Compound 1158] | < 0.1 | 1 to 10 | – | – | 0.1 to 1 | 0.1 to 1
Cc1cn2nc(-c3ccn4c(=O)c(C5CCNCC5)ccc4c3)cc(C)c2n1 [Compound 1181] | < 0.1 | < 0.1 | – | – | < 0.1 | < 0.1
Cc1cn2nc(-c3ccn4c(=O)c(C5=CCNCC5)ncc4c3)cc(C)c2n1 [Compound 1182] | 0.1 to 1 | 0.1 to 1 | – | – | 0.1 to 1 | 0.1 to 1

More lines, now with the values ahead:

IC50 (SMN2 mRNA) [µM] | IC50 (Target C) [µM] | IC50 (MYB; [1]) [µM] | IC50 (HTT; [2]) [µM] | IC50 (MYB; [3]) [µM] | IC50 (HTT; [4]) [µM] | SMILES
< 0.1 | 1 to 10 | 0.1 to 1 | 0.1 to 1 | – | – | Cc1cn2cc(-c3cc(F)c4c(=O)n([C@@H]5C[C@@H](C)N[C@@H](C)C5)ccc4c3)cc(F)c2n1 [Compound 642, 2-[(2S,6R)-2,6-dimethyl-4-piperidyl]-8-fluoro-6-(8-fluoro-2-methyl-imidazo[1,2-a]pyridin-6-yl)isoquinolin-1-one]
0.1 to 1 | > 10 | 1 to 10 | > 10 | – | – | Cc1cn2cc(-c3cc(F)c4c(=O)n([C@H]5CNC[C@@H]5F)ccc4c3)cc(F)c2n1 [Compound 644]
0.1 to 1 | > 10 | 1 to 10 | 1 to 10 | – | – | Cc1cn2nc(-c3cc(N)c4c(=O)n([C@H]5CCNC5)ccc4c3)cc(C)c2n1 [Compound 645, 8-amino-6-(2,8-dimethylimidazo[1,2-b]pyridazin-6-yl)-2-[(3S)-pyrrolidin-3-yl]isoquinolin-1-one]
0.1 to 1 | > 10 | 1 to 10 | > 10 | – | – | Cc1cn2nc(-c3cc(N)c4c(=O)n([C@@H]5CCNC5)ccc4c3)cc(C)c2n1 [Compound 646, 8-amino-6-(2,8-dimethylimidazo[1,2-b]pyridazin-6-yl)-2-[(3R)-pyrrolidin-3-yl]isoquinolin-1-one]
0.1 to 1 | > 10 | 1 to 10 | > 10 | – | – | CNc1cc(-c2cc(C)c3nc(C)cn3n2)cc2ccn([C@@H]3CCNC3)c(=O)c12 [Compound 648, 6-(2,8-dimethylimidazo[1,2-b]pyridazin-6-yl)-8-(methylamino)-2-[(3R)-pyrrolidin-3-yl]isoquinolin-1-one]
< 0.1 | 0.1 to 1 | < 0.1 | < 0.1 | – | – | Cc1cn2cc(-c3cc(F)c4c(=O)n(C5CC(C)NC(C)C5)ccc4c3)cc(F)c2n1 (stereo not shown) [Compound 651]
0.1 to 1 | > 10 | 1 to 10 | > 10 | – | – | Cc1cn2cc(-c3cc(F)c4c(=O)n([C@H]5CNC[C@H]5C)ccc4c3)cc(F)c2n1 [Compound 652, 8-fluoro-6-(8-fluoro-2-methyl-imidazo[1,2-a]pyridin-6-yl)-2-[(3R,4R)-4-methylpyrrolidin-3-yl]isoquinolin-1-one]
0.1 to 1 | > 10 | 1 to 10 | > 10 | – | – | Cc1cn2cc(-c3cc(F)c4c(=O)n([C@@H]5CNC[C@@H]5C)ccc4c3)cc(F)c2n1 [Compound 653, 8-fluoro-6-(8-fluoro-2-methyl-imidazo[1,2-a]pyridin-6-yl)-2-[(3S,4S)-4-methylpyrrolidin-3-yl]isoquinolin-1-one]
